Series [1] can be described thus: Heating agent in water solution in sealed pressure vessels at SAGD conditions (gas generation by decomposition). The series is classed as physicochemical. On the procedure:
For illustrative purposes, an experiment conducted to simulate the impact of a recovery process on selected preconditioning agents under reservoir conditions shall be described. […] In one such experiment, the preconditioning agent was citric acid which was dissolved in water to create the water solution.

For series [2] the following is noted: cited from earlier work.
Setting [3] is: 5 grams agent, 205° C., approx. 73 hours.
Where [4] appears, read: 5.0 g agent and 50 milliliters water, three days at 205° C., SAGD conditions.

Converted amounts (≈) assume the structure as drawn.

`O=C(O)CC(O)(CC(=O)O)C(=O)O` [Citric Acid, citric acid]: in series [1] (setting [3]), the “methane in headspace gas” value is given as “approximately 1500 ppm” and the “propane in headspace gas” value is given as approximately 300 ppm. Also, the “CO2 yielded in headspace” value in series [1] (approximately 5 grams agent (50 milliliters of 10% solution), 205° C., approx. 73 hours, approx. 990 psi) is listed as “approximately 1.16 liters”. For the same molecule, the “carbon dioxide yield scaled” value in series [1] (from 1 cubic meter of 10% solution) is recorded as 23,200 liters.
For the molecule `CCCC(C)=O` [MPK, methyl propyl ketone], the “Solubility in Water at 20° C.” value in series [2] was 31 mg/mL (≈ 360 mM).
In the case of `O=C(O)C(=O)O` [oxalic acid dihydrate], in series [1] (setting [4]), the “carbon dioxide produced on conversion” value was 1.25 moles CO2/mole of oxalic acid dehydrate and the “methane produced on conversion” value is 0.56 moles/mole of oxalic acid dihydrate.
